Entries after “also recorded” stand apart in the source; their conditions may differ. Read-outs that look alike come from different tables or passages of the source.
How the values were obtained:
[1] = tested on: canines with ventricular tachypacing (VTP)-induced congestive heart failure (CHF); assay: Echocardiographic monitoring of the VTP-induced CHF model (LV function, LA area, CHF signs); format: in vivo, canine; details: oral PFD 800 mg three times a day
Excerpt: Briefly, 15 adult mongrel canines (weight 20 to 32 kgs) were divided into 3 groups (n=5 in each group) as follows: Group 1: Normal; Group 2: CHF canines not treated with PFD (or CHF); and Group 3: CHF canines treated with PFD (or CHF+PFD). […] The CHF and CHF+PFD canines underwent placement of a permanent single-chamber pacemaker with the pacing lead positioned in the right ventricular apex followed by radiofrequency catheter ablation of the AV junction to create complete heart block. Canines in the CHF and CHF+PFD groups underwent 3 weeks of VTP at a rate of 220 bpm. Oral PFD (800 mg three times a day) (InterMune, Brisbane, Calif.) was started 2 days prior to the initiation of VTP and was given for the full duration of the pacing period. The CHF and CHF+PFD groups underwent transesophageal echocardiography at the time of pacemaker implantation and at follow-up. Canines in the paced groups underwent weekly transthoracic echocardiography, weekly ECG monitoring to ensure right ventricular capture, and weekly physical examinations. CHF was established by clinical signs, such as, lethargy, peripheral edema, and mucous membrane color changes. Left atrial (LA) size was determined by measuring the LA area by planimetry from 2-D echocardiographic images during diastole from the 2-chamber views. Left ventricular (LV) systolic function was determined by measuring LV fractional shortening at the level of the papillary muscle. Two repeated measurements were made for LA area and LV fractional shortening and the mean value was used for analyses.

TGF-β1 = details: cited from earlier work
IL-10 = assay: Western blot of atrial tissue; format: in vivo, canine; details: 3 groups
[2] = tested on: total extracellular signal-regulated protein kinase (ERK); assay: Western blot of atrial tissue; format: in vivo, canine; details: CHF+PFD vs CHF
Experimental: (§1) Expression of MAPks in atrial tissue was evaluated using Western Blot analysis. Briefly, atrial tissue specimen containing an equal amount of total protein (10 μg) was electrophoresed on a 4-20% Tris-glycine gel and then transferred onto a nitrocellulose filter. Non-specific binding sites were blocked with 4% BSA, and the filter was incubated with diluted antibody and a matched secondary antibody (all antibodies were obtained from Chemicon, Temecular, Calif.). Protein bands were analyzed with an enhanced chemiluminescence detection method using horseradish peroxidase, based on the recommendations from the manufacturer (NEN Life Science, Boston, Mass.).

total p-38 = assay: Western blot of atrial tissue; format: in vivo, canine; details: CHF+PFD vs CHF
Experimental: as §1

[3] = tested on: total c-Jun N-terminal kinase (JNK); assay: Western blot of atrial tissue; format: in vivo, canine; details: CHF+PFD vs CHF
Experimental: as §1

TNF-α = assay: Western blot of atrial tissue; format: in vivo, canine; details: 3 groups
[4] = tested on: tissue inhibitor of metalloproteinase (TIMP)-4; assay: Western blot of atrial tissue; format: in vivo, canine; details: 3 groups
[5] = tested on: canines with heart failure produced by 4 weeks of rapid ventricular pacing; assay: AF inducibility after PFD started once 4 weeks of rapid ventricular pacing ended (Example 7); format: in vivo, canine; details: two canines, pacemakers turned off at 4 weeks, then PFD for 3 weeks
Experimental: AF inducibility was assessed by both the single-extrastimulus protocol (as above) and a burst pacing protocol which consisted of pacing at one LA site and one RA site. A total of 16 burst stimulations were carried out for each animal with each atrial site receiving 8 burst […] (4 for a duration of 6 seconds and 4 for 12 seconds) at a CL of 50 ms and a stimulus output of 0.5 V+twice diastolic threshold. AF was considered sustained if the induced episode lasted >[…] at which time the longest AF duration was taken as 3600 seconds and used for analysis. Two adult mongrel canines (weight 20 to 32 kgs) with heart failure produced by 4 weeks of rapid ventricular pacing as described above were evaluated for AF inducibility following PFD treatment. Briefly, pacemakers were turned off at 4 weeks and PFD started for 3 weeks. A follow-up study for AF inducibility after 3 weeks of PFD treatment was performed as described above.

[6] = tested on: canines with ventricular tachypacing (VTP)-induced congestive heart failure (CHF); assay: Histologic study of atrial fibrosis (Sirius red); format: in vivo, canine
Excerpt: Briefly, 15 adult mongrel canines (weight 20 to 32 kgs) were divided into 3 groups (n=5 in each group) as follows: Group 1: Normal; Group 2: CHF canines not treated with PFD (or CHF); and Group 3: CHF canines treated with PFD (or CHF+PFD). […] The CHF and CHF+PFD canines underwent placement of a permanent single-chamber pacemaker with the pacing lead positioned in the right ventricular apex followed by radiofrequency catheter ablation of the AV junction to create complete heart block. Canines in the CHF and CHF+PFD groups underwent 3 weeks of VTP at a rate of 220 bpm. Oral PFD (800 mg three times a day) (InterMune, Brisbane, Calif.) was started 2 days prior to the initiation of VTP and was given for the full duration of the pacing period. At the conclusion of the EP study, the animals were euthanized. Atrial tissue samples were fixed in 10% neutral buffered formalin. The samples were processed, embedded in paraffin, and sectioned into 4- to 5-μm-thick sections. The sections were stained in either H&E, Masson's trichrome, or Sirius red. […] To quantify fibrosis, the red pixel content of digitized images (Sirius red-stained) was measured relative to the total tissue area (red and green pixels) with the Adobe Photoshop 7.0 software package. Areas containing blood vessels and perivascular interstitial cells were excluded from fibrosis quantification. […]

connexin 40 (Cx40) = assay: Immunofluorescent distribution of gap junction protein in LA; format: in vivo, canine; details: CHF and CHF+PFD groups
Experimental: (§2) The distribution of gap junction proteins connexin 43 (Cx43) and connexin 40 (Cx40) in atrial tissue was also studied. Atrial specimens were incubated with mouse monoclonal antibody against Cx40 and rabbit polyclonal antibody against Cx43 (Dako) overnight at 4° C. Subsequently, incubation with FITC-labeled goat anti-rabbit (for Cx43) and Texas Red-labeled donkey anti-mouse (for Cx40) antibodies (Jackson ImmunoResearch Laboratories, West Grove, Pa.) was performed. The specimens were processed and analyzed with fluorescent microscopy.

connexin 43 (Cx43) = assay: as above; format: in vivo, canine; details: CHF and CHF+PFD groups
Experimental: as §2

Cc1ccc(=O)n(-c2ccccc2)c1 [PFD, 5-methyl-1-phenyl-2-(1H)-pyridone]
LV fractional shortening after 3 weeks of VTP compared with baseline ([1]; CHF+PFD group, p<0.001 vs baseline): −69±8% | CHF signs, CHF vs CHF+PFD ([1]; 3 weeks VTP): did not appear to be different | Increase in LA area from baseline at each weekly time point, CHF vs CHF+PFD ([1]; 3 weeks VTP): similar | Inter-group baseline and weekly LV fractional shortening, CHF vs CHF+PFD ([1]; 3 weeks VTP): similar | Expression of TGF-β1 (TGF-β1; animal models of lung fibrosis (Iyer et al.)): significantly reduce | Expression of TGF-β1 (TGF-β1; hepatic fibrosis (Garcia et al.)): significantly reduce | Expression of TGF-β1 (TGF-β1; renal tubulointerstitial fibrosis (Shihab et al.)): significantly reduce | Expression of IL-10 (IL-10): unchanged; also recorded: not markedly different | Expression of total ERK [2]: downregulation; also recorded: reduced | Expression of total p-38 (total p-38): downregulation; also recorded: reduced | Expression of total JNK (c-Jun) [3]: downregulation; also recorded: reduced | Expression of TNF-α (TNF-α): unchanged; also recorded: not markedly different | Expression of TIMP-4 [4]: unchanged; also recorded: not markedly changed | AF inducibility after 3 weeks of PFD treatment [5]: AF was not found | LA interstitial fibrosis, histologic finding ([6]; Sirius red stained LA sections): significant attenuation | Percentage LA fibrosis ([6]; Sirius red, p<0.002 vs. CHF group (15.4±2.3%), Normals 3.2±1.0%): 8.3±3.0% | Spatial distribution of Cx40 in LA, treated vs untreated (connexin 40 (Cx40)): did not appear markedly different | Spatial distribution of Cx43 in LA, treated vs untreated (connexin 43 (Cx43)): did not appear markedly different
